In general, melting point refers to the temperature, or range, at which the solid turns liquid.

Series [1] relates to Puccinia recondita f. Sp. Tritici. Nature of the series: Puccinia recondita f. sp. tritici / wheat / leaf disc preventative (brown rust). It counts as in vivo. The note with it: foliar, 200 ppm in the applied formulation, wheat leaf segments cv. Kanzler, inoculated 1 day after application, vs untreated, 7 to 9 days after application, read-out: disease control. Summed up: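 Segments of cv. Kanzler wheat on agar received a spray of compound formulation diluted in water and were inoculated with spores one day afterwards. Kept at 19° C and 75% rh under 12 h/12 h light; disease control relative to untreated checks rated at 7–9 days post-application.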

For series [2] the test system is unchanged. The series is described as follows: Puccinia recondita f. sp. tritici / wheat / leaf disc curative (brown rust). The settings on record: foliar, 200 ppm in the applied formulation, wheat leaf segments cv. Kanzler, compound applied 1 day after inoculation, vs untreated, 6 to 8 days after application, read-out: disease control. In kind it is in vivo. Summed up:
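Wheat leaf segments (cv. Kanzler) on agar inoculated with brown rust spores, held dark at 19 °C/75% RH, then sprayed 1 day post-inoculation with formulated compound diluted in water (curative). Incubated at 19 °C/75% RH, 12 h light/12 h dark; percent disease control versus untreated scored 6–8 days after application.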

A further series has as its system Phakopsora pachyrhizi. The series is described as follows: Phakopsora pachyrhizi / soybean / leaf disc preventative (Asian soybean rust). In kind it is in vivo. The settings on record: foliar, 200 ppm in the applied formulation, soybean leaf disks, inoculated one day after application, vs untreated, 12 to 14 days after application, read-out: disease control. Summed up:
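Soybean leaf discs on water agar sprayed with formulated compound diluted in water, then inoculated one day later with spore suspension on the lower surface. Held 24-36 h dark at 20 °C, 75% rh, then 12 h light/day; percent disease control versus untreated scored 12-14 days after application.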

Series [3] deals with Glomerella lacenarium (Colletotrichum lacenarium). The series is described as follows: Glomerella lacenarium (Colletotrichum lacenarium) liquid culture / cucumber / preventative (anthracnose). In kind it is cell-based. The note with it: 20 ppm, liquid culture in PDB, 24° C., inhibition of growth measured photometrically 3 to 4 days after application, vs untreated, read-out: disease control. Summed up: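 Cryopreserved conidia in potato dextrose broth were added to test compound in a 96-well microtiter plate and incubated at 24 °C. Growth inhibition read photometrically 3–4 days after application, as percent activity versus untreated check.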

The subject of the next series is Uromyces viciae-fabae. Nature of the series: Uromyces viciae-fabae / field bean / leaf disc preventative (faba-bean rust). It counts as in vivo. The settings on record: foliar, 288 h, 100 ppm in the applied formulation, field bean leaf discs, inoculated two hours after application, vs untreated, 12 days after application, read-out: disease control. Summed up:
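Field bean leaf discs on water agar received formulated compound (in acetone with spreader), then were spray-inoculated with spores on the lower surface 2 h later. Discs were kept at 22 °C, 18 h day, 70% RH. Percent disease control versus untreated discs was scored 12 days after application.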

Some results are limits rather than exact numbers.

`O=C(Nc1ccc(-c2noc(C(F)(F)F)n2)cc1)C1CCCO1` (stereo not drawn) [Compound 1.41, N-[4-[5-(trifluoromethyl)-1,2,4-oxadiazol-3-yl]phenyl] tetrahydrofuran-2-carboxamide] had a melting point of 115 to 120 °C. Besides, the pest or weed control at 200 ppm in series [1] was ≥ 80%. Further, the pest or weed control at 200 ppm in series [2] was ≥ 80%. In addition, in the series with Phakopsora pachyrhizi, the pest or weed control at 200 ppm is ≥ 80%. Besides, the inhibition of growth at 20 ppm in series [3] was ≥ 80%. The pest or weed control at 100 ppm in the series on Uromyces viciae-fabae is ≥ 80%.

These data come from US20200022370A1, “MICROBIOCIDAL OXADIAZOLE DERIVATIVES” (SYNGENTA PARTICIPATIONS AG, priority 2016, published 2020).
